Measured values published in patent US7135466B2 (Kirin Beer Kabushiki Kaisha, priority 1999, dated 2006).
Like-named read-outs stand apart in the source and are kept apart here.

Experiments:
[1] = biological target: T1, PDGF-Ra (Homo sapiens, UniProt P16234); assay: Inhibitory activity against PDGF-Ra phosphorylation by PDGF-AA stimulation using G292; assay type: cell-based; conditions: for IC50: > means inhibition at indicated concentration not more than 50%, < and << not less than 50%, read-out: PDGF (E) IC50; for inhibition at 0.1 µM: G292, at 100 nM, read-out: PDGF (E) inhibition (%) at 100 nM
T1 construct: host or cells: G-292 human osteosarcoma cells
T1 sequence (P16234 24-1089): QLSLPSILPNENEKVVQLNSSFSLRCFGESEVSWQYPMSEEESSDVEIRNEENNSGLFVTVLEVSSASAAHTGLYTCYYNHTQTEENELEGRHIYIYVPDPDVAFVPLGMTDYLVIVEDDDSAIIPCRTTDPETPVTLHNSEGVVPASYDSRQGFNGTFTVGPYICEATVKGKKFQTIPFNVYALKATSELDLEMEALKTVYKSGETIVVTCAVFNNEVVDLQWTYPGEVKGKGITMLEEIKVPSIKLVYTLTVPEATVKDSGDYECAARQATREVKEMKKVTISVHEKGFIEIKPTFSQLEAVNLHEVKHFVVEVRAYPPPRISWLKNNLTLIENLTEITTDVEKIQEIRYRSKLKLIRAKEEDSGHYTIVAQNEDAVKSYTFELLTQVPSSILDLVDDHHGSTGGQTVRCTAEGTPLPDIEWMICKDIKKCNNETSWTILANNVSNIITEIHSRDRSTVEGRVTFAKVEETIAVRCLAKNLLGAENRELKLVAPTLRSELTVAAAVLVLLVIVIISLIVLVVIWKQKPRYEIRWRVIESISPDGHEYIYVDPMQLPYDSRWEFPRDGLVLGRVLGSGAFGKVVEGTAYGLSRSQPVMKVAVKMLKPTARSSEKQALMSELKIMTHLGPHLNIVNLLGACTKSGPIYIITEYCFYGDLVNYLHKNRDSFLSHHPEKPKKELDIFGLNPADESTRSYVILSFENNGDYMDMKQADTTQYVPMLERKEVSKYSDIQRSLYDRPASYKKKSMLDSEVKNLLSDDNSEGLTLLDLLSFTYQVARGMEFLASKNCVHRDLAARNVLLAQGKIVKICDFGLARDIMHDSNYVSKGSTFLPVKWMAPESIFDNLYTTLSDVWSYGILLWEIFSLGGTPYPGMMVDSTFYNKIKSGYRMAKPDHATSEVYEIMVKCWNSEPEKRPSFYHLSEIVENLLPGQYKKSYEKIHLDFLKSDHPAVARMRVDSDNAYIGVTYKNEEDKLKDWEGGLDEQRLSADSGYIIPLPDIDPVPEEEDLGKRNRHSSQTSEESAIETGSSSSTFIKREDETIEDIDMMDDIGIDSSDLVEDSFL
How it was run: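 Phospho-PDGF-Ra ELISA: capture with PY-20 antiphosphotyrosine, detection with anti-PDGF-Ra and peroxidase secondary, read at 450 nm. Lysates came from G-292 osteosarcoma cells starved in 0.1% FBS, compound-treated 1 hr at 37° C, and stimulated with 50 ng/ml PDGF-AA for 5 min.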

[2] = biological target: T2, c-kit (Homo sapiens, UniProt P10721); assay: Inhibitory activity against c-kit autophosphorylation (MO7e cells, h-SCF); assay type: cell-based; conditions: for IC50: MO7e cells, read-out: c-kit IC50; for inhibition at 1 µM: Mo7e, at 1000 nM
T2 construct: MO7e (human megakaryocytic leukemia cell line) which had been arrested for 20 hr; endogenous in cells; host or cells: MO7e human megakaryocytic leukemia cell line
T2 sequence (P10721 26-976): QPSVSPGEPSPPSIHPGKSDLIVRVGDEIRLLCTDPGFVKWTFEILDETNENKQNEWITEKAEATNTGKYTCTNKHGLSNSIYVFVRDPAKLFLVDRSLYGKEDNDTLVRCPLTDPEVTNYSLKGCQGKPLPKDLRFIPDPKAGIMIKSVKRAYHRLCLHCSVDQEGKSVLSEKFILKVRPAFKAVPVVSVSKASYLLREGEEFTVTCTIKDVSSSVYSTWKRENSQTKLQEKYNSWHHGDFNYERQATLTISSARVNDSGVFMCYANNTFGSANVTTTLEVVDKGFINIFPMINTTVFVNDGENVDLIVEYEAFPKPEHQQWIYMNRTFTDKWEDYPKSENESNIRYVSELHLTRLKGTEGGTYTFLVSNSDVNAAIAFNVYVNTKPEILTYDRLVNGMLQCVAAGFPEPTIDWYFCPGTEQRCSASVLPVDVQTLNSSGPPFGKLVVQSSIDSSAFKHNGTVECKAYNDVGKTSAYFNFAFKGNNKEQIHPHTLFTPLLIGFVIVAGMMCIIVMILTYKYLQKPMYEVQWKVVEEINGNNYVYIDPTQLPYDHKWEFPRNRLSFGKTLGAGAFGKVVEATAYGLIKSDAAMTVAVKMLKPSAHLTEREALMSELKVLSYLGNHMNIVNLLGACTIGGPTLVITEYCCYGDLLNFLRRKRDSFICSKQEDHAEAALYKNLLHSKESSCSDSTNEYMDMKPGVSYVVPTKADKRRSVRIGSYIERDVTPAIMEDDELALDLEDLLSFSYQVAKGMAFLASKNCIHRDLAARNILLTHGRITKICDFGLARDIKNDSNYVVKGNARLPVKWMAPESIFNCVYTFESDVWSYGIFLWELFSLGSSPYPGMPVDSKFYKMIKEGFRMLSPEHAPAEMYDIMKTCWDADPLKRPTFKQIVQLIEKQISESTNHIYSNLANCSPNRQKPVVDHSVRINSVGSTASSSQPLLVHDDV
How it was run: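 Growth-arrested (20 hr) MO7e; cpd in DMSO, 1 hr; h-SCF 50 ng/ml, 5 min; lyse. ELISA: anti-pTyr (PY-20) capture, anti-c-kit 1° Ab, HRP anti-rabbit 2° Ab, A450.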

[3] = figure within parentheses in >100( )
[4] = figure within parentheses in −( ) or >1000( )
[5] = figure in parentheses in >100( )

IC50 ([1]; Pharmacological Test Example 1) [nM]	IC50 ([2]; h-SCF 50 ng/ml) [nM]	IC50 [1] [nM]	SMILES	other results
64	732	–	CCOc1ccccc1C(C)OC(=O)Nc1cc(C)c(Oc2ccnc3cc(OC)c(OC)cc23)cc1C (stereo not drawn) [Example 129, 1-(2-Ethoxyphenyl)-ethyl N-{4-[(6,7-dimethoxy-4-quinolyl)oxy]-2,5-dimethylphenyl}carbamate]	–
20	101	–	COc1cc2nccc(Oc3ccc(NC(=O)OCCN4CCOCC4)c(C)c3C)c2cc1OC [Example 308, 2-Morpholinoethyl N-{4-[(6,7-dimethoxy-4-quinolyl)oxy]-2,3-dimethylphenyl}carbamate]	–
–	–	< 10	COc1cc2ncnc(Oc3ccc(NC(=S)NC(=O)C4CCCC4)cc3)c2cc1OC [Example 1183, N-Cyclopentylcarbonyl-N′-{4-[(6,7-dimethoxy-4-quinazolinyl)oxy]phenyl}thiourea]	IC50 ([2]; h-SCF stimulation): 427 nM
< 10	37	–	COc1cc2nccc(Oc3ccc(NC(=O)OCCCSc4ccccn4)c(C)c3C)c2cc1OC [Example 173, 3-(2-Pyridylsulfanyl)propyl N-{4-[(6,7-dimethoxy-4-quinolyl)oxy]-2,3-dimethylphenyl}-carbamate]	–
–	–	> 100	COc1cc2nccc(Oc3ccc(NC(=S)NC(=O)C(OC)c4ccccc4)cc3)c2cc1OC (stereo not drawn) [Example 761, N-{4-[(6,7-Dimethoxy-4-quinolyl)oxy]phenyl}-N′-(2-methoxy-2-phenylacetyl)thiourea]	inhibition at 0.1 µM [1, 3]: 37%; inhibition at 1 µM [2, 4]: 44%
< 10	73	–	COc1ccc(OCCCOC(=O)Nc2ccc(Oc3ccnc4cc(OC)c(OC)cc34)cc2)cc1 [Example 42, 3-(4-Methoxyphenoxy)propyl N-{4-[(6,7-dimethoxy-4-quinolyl)oxy]phenyl}carbamate]	–
–	–	> 100	CCCC(CCN1CCCCC1)OC(=O)Nc1ccc(Oc2ncnc3cc(OC)c(OC)cc23)cc1 (stereo not drawn) [Example 448, 1-(2-Piperidinoethyl)butyl N-{4-[(6,7-dimethoxy-4-quinazolinyl)oxy]phenyl}carbamate]	inhibition at 0.1 µM [1, 3]: 39%; inhibition at 1 µM [2, 4]: 25%
31	329	–	COc1cc2nccc(Oc3ccc(NC(=O)OC(C)c4cccc(N(C)C)c4)c(C)c3C)c2cc1OC (stereo not drawn) [Example 200, 1-[3-(Dimethylamino)phenyl]ethyl N-{4-[(6,7-dimethoxy-4-quinolyl)oxy]-2,3-dimethylphenyl}-carbamate]	–
31	55	–	COc1cc2nccc(Oc3ccc(NC(=O)OCCOc4cccc(F)c4)cc3)c2cc1OC [Example 207, 2-(3-Fluorophenoxy)ethyl N-{4-[(6,7-dimethoxy-4-quinolyl)oxy]phenyl}carbamate]	–
11	624	–	COc1cc2ncnc(Oc3ccc(NC(=O)OCCCc4ccccc4)c(Cl)c3)c2cc1OC [Example 379, 3-Phenylpropyl N-{2-chloro-4-[(6,7-dimethoxy-4-quinazolinyl)oxy]phenyl}carbamate]	–
< 10	329	–	COc1cc2nccc(Oc3ccc(NC(=O)OCCCCCCN(C)C)c(C)c3C)c2cc1OC [Example 311, 6-(Dimethylamino)hexyl N-{4-[(6,7-dimethoxy-4-quinolyl)oxy]-2,3-dimethylphenyl}carbamate]	–
> 100	–	–	CCCCCCCCCCCCCCCCCCOC(=O)Nc1cc(C)c(Oc2ccnc3cc(OC)c(OC)cc23)cc1C [Example 327, Octadecyl N-{4-[(6,7-dimethoxy-4-quinolyl)oxy]-2,5-dimethylphenyl}carbamate]	inhibition at 0.1 µM [1, 5]: 30%; inhibition at 1 µM ([2]; figure in parentheses in −( )): 6%
–	–	50	COc1cc2nccc(Oc3ccc(NCCCOc4ccccc4)c(C)c3C)c2cc1OC [Example 887, N-{4-[(6,7-Dimethoxy-4-quinolyl)oxy]-2,3-dimethylphenyl}-N-(3-phenoxypropyl)amine]	inhibition at 1 µM ([2]; figure in parentheses in −( )): 20%
–	–	20	COc1cc2nccc(Oc3ccc(NC(=S)NC(=O)c4ccc(I)cc4)c(F)c3)c2cc1OC [Example 967, N-{4-[(6,7-Dimethoxy-4-quinolyl)oxy]-2-fluorophenyl}-N′-(4-iodobenzoyl)thiourea]	inhibition at 1 µM ([2]; figure in parentheses in −( )): 15%
–	–	> 100	COc1cc2nccc(Oc3cc(C)c(NC(=O)OC4CCOCC4)cc3C)c2cc1OC [Example 471, Tetrahydro-2H-4-pyranyl N-{4-[(6,7-dimethoxy-4-quinolyl)oxy]-2,5-dimethylphenyl}carbamate]	inhibition at 0.1 µM [1, 3]: 28%; IC50 ([2]; 50 ng/ml h-SCF): 237 nM
–	–	48	CCCCC(C)C(=O)NC(=S)Nc1ccc(Oc2ccnc3cc(OC)c(OC)cc23)c(Cl)c1 (stereo not drawn) [Example 1077, N-{3-Chloro-4-[(6,7-dimethoxy-4-quinolyl)oxy]phenyl}-N′-(2-methylhexanoyl)thiourea]	IC50 ([2]; h-SCF stimulation): 379 nM
–	–	17	COc1cc2ncnc(Oc3ccc(NC(=S)NC(=O)c4ccncc4)cc3)c2cc1OC [Example 1155, N-{4-[(6,7-Dimethoxy-4-quinazolinyl)oxy]phenyl}-N′-(4-pyridylcarbonyl)thiourea]	inhibition at 1 µM ([2]; figure in parentheses in −( )): 31%
–	–	54	COc1cc2ncnc(Oc3ccc(NC(=O)NC4CC(C)(C)NC(C)(C)C4)cc3)c2cc1OC [Example 563, N-{4-[(6,7-Dimethoxy-4-quinazolinyl)oxy]phenyl}-N′-(2,2,6,6-tetramethyl-4-piperidyl)urea]	IC50 ([2]; 50 ng/ml h-SCF): 406 nM
< 10	< 30	–	COc1cc2nccc(Oc3ccc(NC(=O)OCCCOc4ccc(F)cc4)cc3)c2cc1OC [Example 152, 3-(4-Fluorophenoxy)propyl N-{4-[(6,7-dimethoxy-4-quinolyl)oxy]phenyl}carbamate]	–
–	–	32	COc1cc(Oc2ncnc3cc(OC)c(OC)cc23)ccc1NC(=O)NC1CCN(Cc2ccccc2C)C1 (stereo not drawn) [Example 571, N-{4-[(6,7-Dimethoxy-4-quinazolinyl)oxy]-2-methoxyphenyl}-N′-[1-(2-methylbenzyl)tetrahydro-1H-3-pyrrolyl]urea]	IC50 ([2]; 50 ng/ml h-SCF): 556 nM
> 100	309	–	COc1cc2nccc(Oc3cc(C)c(NC(=O)OCc4ccc(C)cc4)cc3C)c2cc1OC [Example 255, 4-Methylbenzyl N-{4-[(6,7-dimethoxy-4-quinolyl)oxy]-2,5-dimethylphenyl}carbamate]	inhibition at 0.1 µM [1, 5]: 36%
–	–	15	CCCC(CCN(CC)CC)OC(=O)Nc1ccc(Oc2ccnc3cc(OC)c(OC)cc23)c(C)c1C (stereo not drawn) [Example 443, 1-[2-(Diethylamino)ethyl]butyl N-{4-[(6,7-dimethoxy-4-quinolyl)oxy]-2,3-dimethylphenyl}carbamate]	IC50 ([2]; 50 ng/ml h-SCF): 627 nM
25	169	–	COc1cc2nccc(Oc3ccc(NC(=O)OCCOc4ccccc4F)cc3)c2cc1OC [Example 203, 2-(2-Fluorophenoxy)ethyl N-{4-[(6,7-dimethoxy-4-quinolyl)oxy]phenyl}carbamate]	–
10	610	–	COc1cc2ncnc(Oc3ccc(NC(=O)OC(C)c4cccc(N(C)C)c4)cc3)c2cc1OC (stereo not drawn) [Example 202, 1-[3-(Dimethylamino)phenyl]ethyl N-{4-[(6,7-dimethoxy-4-quinazolinyl)oxy]phenyl}carbamate]	–
–	–	13	COc1cc2nccc(Oc3ccc(NC(=O)OCc4cccnc4)c(C)c3C)c2cc1OC [Example 432, 3-Pyridylmethyl N-{4-[(6,7-dimethoxy-4-quinolyl)oxy]-2,3-dimethylphenyl}carbamate]	IC50 ([2]; 50 ng/ml h-SCF): < 30 nM
–	–	14	COc1cc2ncnc(Oc3ccc(NC(=O)NC4CCN(Cc5ccccc5Cl)C4)c([N+](=O)[O-])c3)c2cc1OC (stereo not drawn) [Example 581, N-[1-(2-Chlorobenzyl)tetrahydro-1H-3-pyrrolyl]-N′-{4-[(6,7-dimethoxy-4-quinazolinyl)oxy]-2-nitrophenyl}urea]	IC50 ([2]; 50 ng/ml h-SCF): 180 nM
–	–	17	COc1ccccc1COC(=O)N(C)c1ccc(Oc2ncnc3cc(OC)c(OC)cc23)cc1Cl [Example 478, 2-Methoxybenzyl N-{2-chloro-4-[(6,7-dimethoxy-4-quinazolinyl)oxy]phenyl}-N-methylcarbamate]	inhibition at 1 µM [2, 4]: 28%
–	–	< 10	COc1cc2ncnc(Oc3ccc(NC(=S)NC(=O)c4ccc(CCl)cc4)cc3)c2cc1OC [Example 1002, N-[4-(Chloromethyl)benzoyl]-N′-{4-[(6,7-dimethoxy-4-quinazolinyl)oxy]phenyl}thiourea]	inhibition at 1 µM ([2]; figure in parentheses in −( )): 16%

SMILES	IC50 ([1]; Pharmacological Test Example 1) [nM]	IC50 ([2]; h-SCF 50 ng/ml) [nM]	IC50 [1] [nM]	other results
COc1cc2nccc(Oc3ccc(NC(=O)Oc4ccccc4OC)c(C)c3C)c2cc1OC [Example 279, 2-Methoxyphenyl N-{4-[(6,7-dimethoxy-4-quinolyl)oxy]-2,3-dimethylphenyl}carbamate]	< 10	< 30	–	–
COc1cccc(OC(=O)Nc2ccc(Oc3ccnc4cc(OC)c(OC)cc34)cc2)c1 [Example 214, 3-Methoxyphenyl N-{4-[(6,7-dimethoxy-4-quinolyl)oxy]phenyl}carbamate]	> 30	47	–	PDGF (E) inhibition (%) in >30( ) ([1]; figure in parentheses in >30( ), concentration not defined, presumably 30 nM): 6%
